According to the supplement of paper PMC10307832:

Experiments:
Experiment in all cases: relative viability (nuclei count vs DMSO), 5 days (fraction); higher = more cells survive
Ruxolitinib + Bortezomib = compound: N#CC[C@H](C1CCCC1)n1cc(-c2ncnc3[nH]ccc23)cn1 [Ruxolitinib] + CC(C)C[C@H](NC(=O)[C@H](Cc1ccccc1)NC(=O)c1cnccn1)B(O)O [Bortezomib] (partner 0.002 µM)
Method in brief: (§1)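 One day after seeding in 1536-well plates, lung cancer cell lines were dosed by pin tool. Dosing was either single-drug or a fixed anchor-drug dose plus five library-drug doses (not always all listed) in √10 steps. After 5 days, nuclei were stained in one fix-and-stain step and counted on 4× images, and relative viability is the nuclei count of treated wells over that of vehicle wells, given as the median of duplicate plates.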

Vismodegib + Vorinostat = compound: CS(=O)(=O)c1ccc(C(=O)Nc2ccc(Cl)c(-c3ccccn3)c2)c(Cl)c1 [Vismodegib] + O=C(CCCCCCC(=O)Nc1ccccc1)NO [Vorinostat] (partner 1 µM)
Method in brief: as §1

VE-821 + Luminespib = compound: CS(=O)(=O)c1ccc(-c2cnc(N)c(C(=O)Nc3ccccc3)n2)cc1 [VE-821] + CCNC(=O)c1noc(-c2cc(C(C)C)c(O)cc2O)c1-c1ccc(CN2CCOCC2)cc1 [Luminespib] (partner 0.01 µM)
Method in brief: as §1

Vismodegib + Decitabine = compound: CS(=O)(=O)c1ccc(C(=O)Nc2ccc(Cl)c(-c3ccccn3)c2)c(Cl)c1 [Vismodegib] + Nc1ncn([C@H]2C[C@H](O)[C@@H](CO)O2)c(=O)n1 [Decitabine] (partner 2 µM)
Method in brief: as §1

Cell Line | relative viability (Ruxolitinib + Bortezomib; first compound 0.08 µM) | relative viability (Ruxolitinib + Bortezomib; first compound 0.253 µM) | relative viability (Ruxolitinib + Bortezomib; first compound 0.8 µM) | relative viability (Ruxolitinib + Bortezomib; first compound 2.53 µM) | relative viability (Ruxolitinib + Bortezomib; first compound 8 µM) | relative viability (Vismodegib + Vorinostat; first compound 0.08 µM) | relative viability (Vismodegib + Vorinostat; first compound 0.253 µM) | relative viability (Vismodegib + Vorinostat; first compound 0.8 µM) | relative viability (Vismodegib + Vorinostat; first compound 2.53 µM) | relative viability (Vismodegib + Vorinostat; first compound 8 µM) | relative viability (VE-821 + Luminespib; first compound 0.08 µM) | relative viability (VE-821 + Luminespib; first compound 0.253 µM) | relative viability (VE-821 + Luminespib; first compound 0.8 µM) | relative viability (VE-821 + Luminespib; first compound 2.53 µM) | relative viability (VE-821 + Luminespib; first compound 8 µM) | relative viability (Vismodegib + Decitabine; first compound 0.08 µM) | relative viability (Vismodegib + Decitabine; first compound 0.253 µM) | relative viability (Vismodegib + Decitabine; first compound 0.8 µM) | relative viability (Vismodegib + Decitabine; first compound 2.53 µM) | relative viability (Vismodegib + Decitabine; first compound 8 µM)
NCI-H1299 | 1 | 0.997 | 1.02 | 0.932 | 0.984 | – | – | – | – | – | – | – | – | – | – | – | – | – | – | –
NCI-H1395 | – | – | – | – | – | 0.681 | 0.663 | 0.614 | 0.522 | 0.8 | 0.7 | 0.677 | 0.704 | 0.636 | 0.525 | 0.736 | 0.696 | 0.693 | 0.71 | 0.727
NCI-H1563 | 0.992 | 0.867 | 0.97 | 0.833 | 0.788 | – | – | – | – | – | 0.56 | 0.499 | 0.491 | 0.509 | 0.338 | – | – | – | – | –
NCI-H1623 | – | – | – | – | – | – | – | – | – | – | 0.588 | 0.473 | 0.605 | 0.509 | 0.505 | – | – | – | – | –
NCI-H1648 | – | – | – | – | – | 0.607 | 0.757 | 0.389 | 0.465 | 0.512 | – | – | – | – | – | 0.499 | 0.472 | 0.482 | 0.459 | 0.527
NCI-H1703 | 0.412 | 0.38 | 0.346 | 0.338 | 0.245 | – | – | – | – | – | – | – | – | – | – | – | – | – | – | –
NCI-H1792 | 0.957 | 0.905 | 0.911 | 0.834 | 0.774 | – | – | – | – | – | 0.462 | 0.524 | 0.367 | 0.506 | 0.359 | 0.513 | 0.478 | 0.532 | 0.481 | 0.521
NCI-H1793 | – | – | – | – | – | – | 0.717 | 0.733 | 0.734 | 0.748 | 0.155 | 0.234 | 0.175 | 0.162 | 0.121 | – | 0.475 | 0.58 | 0.476 | 0.579
NCI-H1944 | – | – | – | – | – | 0.592 | 0.522 | 0.735 | – | 0.568 | 0.835 | 0.698 | 0.421 | 0.803 | 0.416 | 0.428 | 0.413 | 0.456 | – | 0.405
NCI-H2170 | – | – | – | – | – | 0.83 | 0.712 | 0.824 | 0.815 | 0.838 | 0.754 | 0.623 | 0.769 | 0.585 | 0.555 | 0.489 | 0.477 | 0.455 | 0.463 | 0.467
NCI-H2228 | 1.27 | 1.11 | 1.14 | 0.957 | 1.09 | 1.03 | 0.719 | 0.589 | 0.751 | 0.574 | 0.125 | 0.165 | 0.131 | 0.132 | 0.0911 | – | – | – | – | –
NCI-H2342 | – | – | – | – | – | 0.747 | 0.597 | 0.805 | 0.735 | 0.652 | 0.8 | 0.65 | 0.552 | 0.708 | 0.717 | 0.752 | 0.637 | 0.709 | 0.804 | 0.89
SK-MES-1 | – | – | – | – | – | 1.11 | 0.981 | 1.07 | 0.973 | 1.06 | 1.09 | 0.797 | 0.746 | 0.537 | 0.306 | 0.401 | 0.341 | 0.435 | 0.374 | 0.443
SW 900 | – | – | – | – | – | 0.457 | 0.415 | 0.435 | – | 0.602 | 0.199 | 0.187 | 0.156 | 0.167 | 0.152 | 0.404 | 0.417 | 0.429 | – | 0.481
